One data set deals with h-P2X5 (Homo sapiens, UniProt Q93086). The experiment in a line: Ca2+ flux assay h-P2X5. Conditions: for inhibition at 50 µM: read-out: h-P2X5 % Inhibition.
Data set [1] can be described thus: MTT cytotoxicity assay, HEK-293 cell line. The data set is classed as cell-based. Conditions: human, HEK-293 cells, final concentration of 50 μM. How it is done:
(§1) Cellular safety profiling of adamantane thioureas were done through MTT assay. All compounds were analyzed for toxicity at final concentration of 50 μM. […] Toxicity was determined against two cancer cell lines including human 1321N1 Astrocytoma cell line, HeLa cell line and a normal HEK-293 cell line.
(§2) c. Cell Viability Assay (MTT Assay)
(§3) After 24 h of incubation at 37° C. in CO2 incubator, culture media will be replaced with serum-free media along with test compounds and re-incubate. After 24 h, media will be removed and add 100 μL of MTT reagent (0.5-5 mg/mL) and will be incubated for a further 4 h, at 37° C. Absorbance will be measured at 570 and 630 nm to calculate cell viability.

A further data set addresses T1, h-P2X4 (Homo sapiens, UniProt Q99571).
T1 sequence (Q99571 1-388): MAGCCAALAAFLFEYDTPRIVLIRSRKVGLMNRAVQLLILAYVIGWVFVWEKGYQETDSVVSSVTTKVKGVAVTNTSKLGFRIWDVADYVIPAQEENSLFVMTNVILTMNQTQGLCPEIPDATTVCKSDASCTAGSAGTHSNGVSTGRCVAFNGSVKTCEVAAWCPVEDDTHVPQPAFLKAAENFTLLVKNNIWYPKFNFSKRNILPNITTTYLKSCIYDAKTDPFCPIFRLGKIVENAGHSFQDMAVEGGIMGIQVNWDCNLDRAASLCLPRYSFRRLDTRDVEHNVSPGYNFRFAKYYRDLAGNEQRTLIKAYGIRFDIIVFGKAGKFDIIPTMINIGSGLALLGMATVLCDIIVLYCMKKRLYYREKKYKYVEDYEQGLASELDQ
Briefly: Ca2+ flux assay h-P2X4. To be noted: for inhibition at 50 µM: read-out: h-P2X4 % Inhibition. Background: Calcium flux is commonly read through the fluorescence of an indicator in the cells.

The target in a further data set is T2, h-P2X7 (Homo sapiens, UniProt Q99572).
T2 sequence (Q99572 1-595): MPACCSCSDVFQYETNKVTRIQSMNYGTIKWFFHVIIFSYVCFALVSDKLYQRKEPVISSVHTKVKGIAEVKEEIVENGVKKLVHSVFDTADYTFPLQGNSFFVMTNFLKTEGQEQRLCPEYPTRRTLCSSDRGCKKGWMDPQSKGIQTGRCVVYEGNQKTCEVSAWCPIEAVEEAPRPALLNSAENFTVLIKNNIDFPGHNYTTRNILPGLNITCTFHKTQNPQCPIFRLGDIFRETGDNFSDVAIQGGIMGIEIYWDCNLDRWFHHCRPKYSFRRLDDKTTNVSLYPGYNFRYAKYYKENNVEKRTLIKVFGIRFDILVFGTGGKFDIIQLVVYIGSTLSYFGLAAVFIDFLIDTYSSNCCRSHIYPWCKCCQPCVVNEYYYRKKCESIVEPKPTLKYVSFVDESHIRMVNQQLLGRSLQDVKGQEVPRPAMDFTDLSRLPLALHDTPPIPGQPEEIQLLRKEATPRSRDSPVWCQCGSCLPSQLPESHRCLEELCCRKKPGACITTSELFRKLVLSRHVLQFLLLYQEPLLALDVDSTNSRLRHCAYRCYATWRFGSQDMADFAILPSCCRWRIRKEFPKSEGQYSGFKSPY
The experiment in a line: Ca2+ flux assay h-P2X7. Conditions: for inhibition at 50 µM: read-out: h-P2X7 % Inhibition.

Data set [2] in a line: MTT cytotoxicity assay, human 1321N1 astrocytoma cell line. It is filed as cell-based. To be noted: human, 1321N1 astrocytoma cells, final concentration of 50 μM. How it is done:
as §1, §2, §3
On the technique in general: Tetrazolium assays rely on reduction of a dye to a coloured formazan, in cell work by metabolically active cells.

In a further data set the target is T3, h-P2X2 (Homo sapiens, UniProt Q9UBL9).
T3 sequence (Q9UBL9 1-471): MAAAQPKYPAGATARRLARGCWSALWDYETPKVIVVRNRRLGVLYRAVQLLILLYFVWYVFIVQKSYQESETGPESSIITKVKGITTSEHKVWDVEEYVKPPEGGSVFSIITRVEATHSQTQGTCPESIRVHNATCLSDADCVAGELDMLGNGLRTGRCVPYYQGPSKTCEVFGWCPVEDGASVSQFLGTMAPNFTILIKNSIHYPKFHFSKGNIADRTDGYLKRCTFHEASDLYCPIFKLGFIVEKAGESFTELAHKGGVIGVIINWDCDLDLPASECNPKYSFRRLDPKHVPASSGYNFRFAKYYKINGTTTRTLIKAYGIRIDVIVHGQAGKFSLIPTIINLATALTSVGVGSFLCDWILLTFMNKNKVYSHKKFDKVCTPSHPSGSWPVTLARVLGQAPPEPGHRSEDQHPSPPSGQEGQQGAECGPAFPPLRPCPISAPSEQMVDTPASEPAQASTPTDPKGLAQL
The experiment in a line: Ca2+ flux assay h-P2X2. To be noted: for inhibition at 50 µM: read-out: h-P2X2 % Inhibition; for IC50: read-out: h-P2X2 IC50 ± SEM, Ca2+ flux, n = 3.

Data set [3] can be described thus: MTT cytotoxicity assay, HeLa cell line. To be noted: human, HeLa cells, final concentration of 50 μM. It is filed as cell-based. As for the experimental part:
as §1, §2, §3

[4] abbreviates: read-out: h-P2X7 IC50 ± SEM, Ca2+ flux, n = 3.
Setting [5] is: read-out: h-P2X4 IC50 ± SEM, Ca2+ flux, n = 3.

For orientation: inhibition means how much of the control response was suppressed. By IC50 is commonly meant the concentration that inhibits the measured activity by half.

Read-outs that look alike come from different tables or passages of the source.

Chain of h-P2X5 (Q93086 whole entry): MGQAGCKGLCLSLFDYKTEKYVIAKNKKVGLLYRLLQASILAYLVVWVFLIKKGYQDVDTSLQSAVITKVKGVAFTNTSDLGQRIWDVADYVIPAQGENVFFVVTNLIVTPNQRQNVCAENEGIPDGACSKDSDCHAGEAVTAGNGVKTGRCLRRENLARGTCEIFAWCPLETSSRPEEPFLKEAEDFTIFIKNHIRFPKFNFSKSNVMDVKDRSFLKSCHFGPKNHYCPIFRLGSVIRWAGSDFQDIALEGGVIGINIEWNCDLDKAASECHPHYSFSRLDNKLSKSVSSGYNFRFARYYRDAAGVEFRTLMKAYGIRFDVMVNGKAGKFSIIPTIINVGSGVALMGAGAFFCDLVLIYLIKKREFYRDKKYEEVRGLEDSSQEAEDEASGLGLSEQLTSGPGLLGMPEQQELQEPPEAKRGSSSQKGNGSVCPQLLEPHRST
Protocol for h-P2X2: (§4) Compounds were initially analyzed at a final concentration of about 50 μM and percentage of inhibition was calculated.
(§5) Calcium Mobilization Assay to Measure P2X Receptors Response Cell Culture: P2X receptors functions can be analyzed from ATP-induced increase in cytosolic Ca^2+ concentration. Two Ca^2+ chelating dyes, Fura-2 AM and Fluo-4 AM can be used to determine the intracellular Ca^2+ concentration through a fluorescent imaging micro-titer plate reader (BMG Labtech: FLUOstar Galaxy®). Non-transfected human 1321N1 astrocytoma cells, as well as P2X receptors transfected human 1321N1 astrocytoma cells will be cultured in T-75 cm^2 cell culture flask having appropriate cell culture growth media; Dulbecco's Modified Eagle's medium (DMEM) supplemented with 10% fetal bovine serum (FBS), 75 μg/mL of Hygromycin B or human P2X receptors transfected cell lines and 1% pen-strep (antibiotics). Cells will be incubated at 37° C. in 5% CO2 incubator until 80 to 90% cell confluency will be achieved. Cells will be maintained in an exponential growth phase throughout the experiment and closely monitored for contamination.
Measurement of Ca^2+ Flux
(§6) When 1321N1 cells will reach 80 to 90% of confluency, cells will be harvested from T-75 cm^2 flask by trypsinization. After washing the cells with phosphate buffer saline (PBS), cells will be seeded at a density of 20,000 cells/well in black, clear bottom, poly-D-lysine coated 96 well plate. After 16 to 24 h, cell culture media will be removed and add Hank's balanced salt solution (HBSS) containing 3 μM Ca^2+ chelating dyes Fura-2 AM or Fluo-4 AM. After 1 h of incubation at 23° C., the loading dye solution will be removed, and added seven to eight dilutions of test compounds in triplicate format. ATP (at a concentration value of EC80) or buffer will be added and measured the excitation and emission at 340/520 nm and 380/520 nm through FLUOStar Galaxy®. Assay volume for the experiment will be 200 μL. IC50 and EC50 values will be calculated by PRISM 5.0 (GrapgPad, San Diego, Calif., USA) through non-linear regression analysis.
Protocol for h-P2X4: as §4, §5
Measurement of Ca^2+ Flux
as §6
Protocol for h-P2X5: as §4, §5
Measurement of Ca^2+ Flux
as §6
Protocol for h-P2X7: as §4, §5
Measurement of Ca^2+ Flux
as §6

Turning to `O=C(NC(=S)Nc1ccc(Br)cc1)C12CC3CC(CC(C3)C1)C2` [Il, N-((4-bromophenyl)carbamothioyl)adamantane-1-carboxamide], the values for the inhibition at 50 µM on h-P2X5, on h-P2X4 and at h-P2X2 were 47.7%, 46.8% and 36%, respectively. Also, the cytotoxicity at 24 h, 50 µM in data set [1] was found to be 18.7%; in data set [2], 15.4%; in data set [3], 7.19%. Moreover, on h-P2X7 (setting [4]), the IC50 turned out to be 8.8 ± 1.12 µM.
As for `O=C(NC(=S)Nc1ccccc1O)C12CC3CC(CC(C3)C1)C2` [Ia, N-((2-hydroxyphenyl)carbamothioyl)adamantane-1-carboxamide], the results for the inhibition at 50 µM at h-P2X5 and on h-P2X2 were 40.6% and 32.6%, respectively. The figures for the cytotoxicity at 24 h, 50 µM in data set [1], in data set [2] and in data set [3] were 26.6%, 10.3% and 13.1%, respectively. Further, the results for the IC50 on h-P2X4 (setting [5]) and at h-P2X7 (setting [4]) were 1.08 ± 0.02 µM and 1.47 ± 0.09 µM, respectively.
As for `COc1ccc(NC(=S)NC(=O)C23CC4CC(CC(C4)C2)C3)cc1OC` [Ik, N-((3,4-dimethoxyphenyl)carbamothioyl)adamantane-1-carboxamide], the IC50 at h-P2X5 came out at 1.48 ± 0.23 µM; at h-P2X4 (setting [5]), 3.46 ± 0.4 µM; on h-P2X7 (setting [4]) it was 4.9 ± 1.04 µM; on h-P2X2, 0.732 ± 0.01 µM. The cytotoxicity at 24 h, 50 µM in data set [1] was found to be 7.2%; in data set [2], 19.4%; in data set [3], 14.3%.
As for `COc1ccc(NC(=S)NC(=O)C23CC4CC(CC(C4)C2)C3)cc1` [Ij, N-((4-methoxyphenyl)carbamothioyl)adamantane-1-carboxamide], the inhibition at 50 µM on h-P2X5 came to 44.5%; on h-P2X4 it was 44.9%; at h-P2X7, 29.4%. Moreover, the cytotoxicity at 24 h, 50 µM worked out at 10.6% in data set [1], 4.56% in data set [2] and 8.01% in data set [3]. The IC50 on h-P2X2 came out at 5.24 ± 0.32 µM.
`NS(=O)(=O)c1cccc(NC(=S)NC(=O)C23CC4CC(CC(C4)C2)C3)c1` [Ig, N-((3-sulfamoylphenyl)carbamothioyl)adamantane-1-carboxamide]: the inhibition at 50 µM at h-P2X5 stood at 42.5%; on h-P2X2, 18.1%. For the same molecule, the cytotoxicity at 24 h, 50 µM in data set [1] is 3.77%; in data set [2], 12.9%; in data set [3], 12.5%. For the same molecule, the IC50 was determined as 4.19 ± 0.23 µM at h-P2X4 and 0.829 ± 0.12 µM against h-P2X7.
Regarding `O=C(NC(=S)Nc1cc(Br)ccc1Br)C12CC3CC(CC(C3)C1)C2` [Iq, N-((2,5-dibromophenyl)carbamothioyl)adamantane-1-carboxamide], the inhibition at 50 µM on h-P2X5 is 16.2%; on h-P2X7 it was 11.2%; on h-P2X2, 41.1%. Besides, the figures for the cytotoxicity at 24 h, 50 µM in data set [1], in data set [2] and in data set [3] were 14.8%, 21.2% and 20.7%, respectively. This molecule also had an IC50 against h-P2X4 of 5.73 ± 0.42 µM.
As for `Cc1ccc(NC(=S)NC(=O)C23CC4CC(CC(C4)C2)C3)c(Br)c1` [Im, N-((2-bromo-4-methylphenyl)carbamothioyl)adamantane-1-carboxamide], the IC50 was found to be 6.04 ± 1.2 µM at h-P2X5, 1.56 ± 0.21 µM at h-P2X4 (setting [5]), 3.71 ± 0.78 µM at h-P2X7 (setting [4]) and 4.85 ± 0.32 µM on h-P2X2. Besides, the cytotoxicity at 24 h, 50 µM in data set [1] was determined as 18.9%; in data set [2] it was 7.29%; in data set [3], 15.4%.
For `COc1cccc(NC(=S)NC(=O)C23CC4CC(CC(C4)C2)C3)c1` [Ii, N-((3-methoxyphenyl)carbamothioyl)adamantane-1-carboxamide], the inhibition at 50 µM on h-P2X5 is 44%; on h-P2X4, 38%; on h-P2X7, 15.1%. Moreover, the cytotoxicity at 24 h, 50 µM in data set [1] worked out at 20.7%; in data set [2], 6.53%; in data set [3] it was 18.1%. For the same molecule, the IC50 at h-P2X2 was 2.31 ± 0.31 µM.
